In patent publication EP0540143B1, “Compounds and methods for inhibition of HIV and related viruses” (priority 1991, dated 1993):

What was measured:
HIV virus = assay: Test A (XTT), MT4 cells infected with HIV; format: cell-based; details: for inhibition at 0.1 µg/mL / inhibition at 1 µg/mL / inhibition at 10 µg/mL / inhibition at 100 µg/mL: Human immunodeficiency virus 1, MT4, Test A; for % inhibition: Test A
Method: (§1) Tests A, B, C, and D (XTT)
(§2) MT4 cells in a medium of RPMI 1640, 5% FCS, penicillin/streptomycin are adjusted to 2x10^5 cells/ml and seeded into microplates (96 wells/plate) 100 µl cell suspension/well giving 2x10^4 cells/well. The compound to be tested is made into a 10 mg/ml mixture in DMSO and stored at -20°C. The compound in DMSO is diluted with medium containing 10% DMSO in a 10-fold dilution series to give 1 mg/ml, 10 mg/ml, and […] solutions. Further dilutions to 400, 40, 4 and 0.4 mg/ml are made in medium containing microplates. Fifty µl of the 400, 40, and 4 mg/ml are transferred to the cell-containing microplates with a multi-channel pipette (final concentration: 100, 10, and 1 mg/ml). Finally, 50 µl of virus suspension is added to each well (with a repetitive "Eppendorf" multipipett). Each plate has at least six wells with the following: [Test A: HIV virus; Test B: HIV(II) virus; Test C: SIV virus; Test D: No virus]; with no drug (virus control) and six wells without virus (medium control). The plate is put into a plastic bag and incubated for six days in CO2 atmosphere. To each well in the plate is added 50 µl of XTT ((2,3-bis[2-methoxy-4-nitro-5-sulfophenyl]-5-[(phenylamino)carbonyl]-2H-tetrazolium hydroxide), (1 mg/ml 0.01-0.02 mM N-metyl-phenazonium methosulfate). After six hours of incubation in CO2 atmosphere the plates are covered with adhesive plate sealers and gently mixed on a vortex. Optical densities are determined at a wavelength of 450 nm and a reference wavelength of 650 nm. The percent reduction of cytotoxocity caused by the virus infection is calculated as follows: (OD450 compound - OD450 inf cells)/(OD450 uninf cells - OD450 inf cells)x 100 [formula]

recombinant HIV-RT = recombinant HIV-RT (Human immunodeficiency virus type 1 group M subtype B, UniProt P04585); assay: Test I (HIVRT (rAdt)), direct inhibition of recombinant HIV-RT; format: biochemical
Method: The compounds were tested for direct inhibitory activity on HIV-RT in a volume of […] recombinant HIV-RT (diluted in virus disruption buffer to give 200.000 cpm).
100 mM Tris-HCl pH 7.6, 100 mM KCl, 4 mM MgCl2, 4 mM DTT, 275 mg/ml BSA, 0.5 mg (rA)n(dT)12-18 and 0.3 mM ^3H- dTTP (specific activity […]). After 60 minutess of incubation 40 ml in duplicate were spotted on paper discs and washed in 5% TCA. After rinsing the paper discs in ethanol they were dried and counted in scintillation fluid.

SIV virus = assay: Test C (XTT), MT4 cells infected with SIV; format: cell-based; details: Simian immunodeficiency virus, MT4, Test C
Method: as §1, §2

HIV(II) virus = assay: Test B (XTT), MT4 cells infected with HIV(II); format: cell-based; details: Human immunodeficiency virus 1, MT4, Test B
Method: as §1, §2

Row | SMILES | inhibition at 1 µg/mL (HIV virus; 1 µg/ml) | inhibition at 10 µg/mL (HIV virus; 10 µg/ml) | inhibition at 100 µg/mL (HIV virus; 100 µg/ml) | inhibition at 0.1 µg/mL (recombinant HIV-RT) | inhibition at 1 µg/mL (recombinant HIV-RT) | inhibition at 10 µg/mL (recombinant HIV-RT; 10 µg/ml) | other results
1 | CC(C)(C)c1csc(NC(=S)NCCc2ccccc2)n1 | 0% | 9% | 0% | 8% | 8% | 15% | inhibition at 0.1 µg/mL (HIV virus): 0%
2 | COC(=O)C(=O)c1csc(NC(=S)NCCc2ccccc2)n1 | 0% | 0% | 0% | 1% | 1% | 13% | 
3 | S=C(NCCc1ccccc1)Nc1nc(-c2ccc(Cl)cc2)cs1 | 0% | 0% | 18% | 1% | 1% | 1% | 
4 | S=C(NCCc1ccccc1)Nc1nc(-c2ccc(Br)cc2)cs1 | 0% | 0% | 30% | 1% | 1% | 1% | 
5 | S=C(NCCc1ccccc1)Nc1nc(-c2ccncc2)cs1 | 32% | 51% |  |  |  |  | % inhibition (HIV virus; 1 µg/ml): 46%; % inhibition (HIV virus; 10 µg/ml): 65%
6 | CCCCCCCCCCCCCCc1sc(NC(=S)NCCc2ccccc2)nc1-c1ccc(Cl)cc1 | 0% | 0% | 33% | 1% | 1% | 1% | 
7 | S=C(NCCc1ccccc1)Nc1ccccc1 | 0% | 25% | 0% | 1% | 16% | 16% | 
8 | S=C(NCCc1ccccc1)Nc1ccc(Cl)cc1 | 17% | 67% | 0% | 4% | 29% | 35% | 
9 | Fc1ccc(NC(=S)NCCc2ccccc2)cc1 | 5% | 41% | 0% |  |  |  | inhibition at 0.1 µg/mL (HIV virus): 0%; % inhibition (HIV virus; 10 µg/ml): 32%
10 | S=C(NCCc1ccccc1)Nc1ccccc1Cl | 0% | 52% | 0% | 5% | 31% | 50% | 
11 | NS(=O)(=O)c1ccc(NC(=S)NCCc2ccccc2)cc1 | 0% | 22% |  |  |  |  | inhibition at 0.1 µg/mL (HIV virus): 3%
12 | CCCCOC(=O)c1ccc(NC(=S)NCCc2ccccc2)cc1 | 0% | 0% |  |  |  |  | inhibition at 0.1 µg/mL (HIV virus): 0%
13 | S=C(NCCc1ccccc1)Nc1ccccn1 | 0% | 2% | 6% |  |  |  | 
14 | S=C(NCCc1ccccc1)Nc1ncccn1 | 0% | 23% | 22% | 5% | 12% | 6% | 
15 | Cc1ccnc(NC(=S)NCCc2ccccc2)n1 | 42% | 64% | 100% | 9% | 15% | 9% | inhibition at 1 µg/mL (SIV virus): 0%; inhibition at 10 µg/mL (SIV virus): 0%; inhibition at 100 µg/mL (SIV virus): 0%; inhibition at 1 µg/mL (HIV(II) virus): 0%; inhibition at 10 µg/mL (HIV(II) virus): 27%; inhibition at 100 µg/mL (HIV(II) virus): 100%
16 | S=C(NCCc1ccccc1)Nc1cnccn1 | 4% | 100% | 100% | 1% | 27% | 36% | inhibition at 1 µg/mL (SIV virus): 2%; inhibition at 10 µg/mL (SIV virus): 20%; inhibition at 100 µg/mL (SIV virus): 100%
17 | Cc1nnc(NC(=S)NCCc2ccccc2)s1 | 3% | 38% | 20% | 1% | 21% | 18% | 

Row | SMILES | inhibition at 1 µg/mL (HIV virus; 1 µg/ml) | inhibition at 10 µg/mL (HIV virus; 10 µg/ml) | inhibition at 100 µg/mL (HIV virus; 100 µg/ml) | inhibition at 0.1 µg/mL (recombinant HIV-RT) | inhibition at 1 µg/mL (recombinant HIV-RT) | inhibition at 10 µg/mL (recombinant HIV-RT; 10 µg/ml) | other results
18 | CCc1nnc(NC(=S)NCCc2ccccc2)s1 | 0% | 7% | 17% | 12% |  | 11% | % inhibition (recombinant HIV-RT; 10 µg/ml): 17%
19 | S=C(NCCc1ccccc1)Nc1nncs1 | 100% | 100% | 100% | 12% | 14% | 14% | inhibition at 1 µg/mL (SIV virus): 0%; inhibition at 10 µg/mL (SIV virus): 17%; inhibition at 100 µg/mL (SIV virus): 0%; inhibition at 1 µg/mL (HIV(II) virus): 100%; inhibition at 10 µg/mL (HIV(II) virus): 57%; inhibition at 100 µg/mL (HIV(II) virus): 96%
20 | S=C(NCCc1ccccc1)Nc1ncco1 | 0% | 0% |  |  |  |  | inhibition at 0.1 µg/mL (HIV virus): 0%
21 | S=C(NCCc1ccccc1)Nc1cc[nH]n1 | 0% | 0% | 0% | 1% | 8% | 38% | 
22 | S=C(NCCc1ccccc1)Nc1cnc2ccccc2c1 | 0% | 71% | 0% |  |  |  | 
23 | S=C(NCCc1ccccc1)NCc1ccco1 | 10% | 7% |  | 7% | 12% | 10% | inhibition at 0.1 µg/mL (HIV virus): 3%
24 | Cc1cccc2sc(NC(=S)NCCc3ccccc3)nc12 | 8% | 28% | 50% | 12% | 12% | 24% | 
25 | CCOc1ccc2nc(NC(=S)NCCc3ccccc3)sc2c1 | 0% | 5% | 33% | 1% | 5% | 8% | 
26 | S=C(NCCc1ccccc1)N1CCCc2ccccc21 | 0% | 0% |  |  |  |  | 
27 | S=C(NCCc1ccccc1)N1CCCCC1 | 0% | 0% |  |  |  |  | inhibition at 0.1 µg/mL (HIV virus): 0%
28 | CN1CCN(C(=S)NCCc2ccccc2)CC1 | 0% | 0% | 0% |  |  |  | 
29 | S=C(NCCc1ccccc1)N1CCOCC1 | 13% | 9% |  |  |  |  | inhibition at 0.1 µg/mL (HIV virus): 0%
30 | COc1ccc(CCNC(=S)Nc2nccs2)cc1OC |  | 54% | 0% |  |  |  | % inhibition (HIV virus; 10 µg/ml): 58%
31 | S=C(NCCc1ccc(Cl)cc1)Nc1nccs1 |  | 79% | 73% |  |  |  | % inhibition (HIV virus; 10 µg/ml): 93%; % inhibition (HIV virus; 100 µg/ml): 71%
32 | Fc1cccc(Cl)c1CCNC(=S)Nc1nccs1 | 100% |  |  | 43% | 77% | 92% | % inhibition (HIV virus; 1 µg/ml): 98%; % inhibition (HIV virus; 10 µg/ml): 52%
33 | CCOc1ccccc1CCNC(=S)Nc1nccs1 | 96% | 100% | 100% | 12% | 30% | 33% | inhibition at 1 µg/mL (SIV virus): 0%; inhibition at 10 µg/mL (SIV virus): 5%; inhibition at 100 µg/mL (SIV virus): 0%; inhibition at 1 µg/mL (HIV(II) virus): 100%; inhibition at 10 µg/mL (HIV(II) virus): 91%; inhibition at 100 µg/mL (HIV(II) virus): 100%
